Measured values as given in PubChem BioAssay (NCI).
Where “and” joins values, the source holds several entries; their conditions need not be identical. Identical values can stand only once.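 Cells were grown in 96-well plates and exposed to each compound for 48 hours at five concentrations; endpoints were interpolated linearly between bracketing concentrations, or set to the highest concentration if not reached. GI50 = concentration required for 50% inhibition of growth. TGI is the concentration that stops growth completely.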

Columns and labels:
Test in all cases: DTP human tumour cell line panel, 48 h
HS 578T breast = test system: HS 578T breast
LOX IMVI melanoma = test system: LOX IMVI melanoma
OVCAR-4 ovarian = test system: OVCAR-4 ovarian
HOP-92 NSCLC = test system: HOP-92 NSCLC
786-0 renal = test system: 786-0 renal
UACC-257 melanoma = test system: UACC-257 melanoma
EKVX NSCLC = test system: EKVX NSCLC
HCC-2998 colon = test system: HCC-2998 colon
MDA-MB-435 = test system: MDA-MB-435
T-47D breast = test system: T-47D breast

| SMILES | GI50 (HS 578T breast) | TGI (HS 578T breast) | GI50 (LOX IMVI melanoma) | TGI (LOX IMVI melanoma) | GI50 (OVCAR-4 ovarian) | TGI (OVCAR-4 ovarian) | GI50 (HOP-92 NSCLC) | TGI (HOP-92 NSCLC) | GI50 (786-0 renal) | TGI (786-0 renal) | GI50 (UACC-257 melanoma) | TGI (UACC-257 melanoma) | GI50 (EKVX NSCLC) | TGI (EKVX NSCLC) | GI50 (HCC-2998 colon) | TGI (HCC-2998 colon) | GI50 (MDA-MB-435) | TGI (MDA-MB-435) | GI50 (T-47D breast) | TGI (T-47D breast) |
| --- | --- | --- | --- | --- | --- | --- | --- | --- | --- | --- | --- | --- | --- | --- | --- | --- | --- | --- | --- | --- |
| Fc1ccc(-c2nn3ccccc3c2-c2ccncc2)cc1 | > 25 µM | > 25 µM | > 25 µM | > 25 µM | > 25 µM | > 25 µM | 4.53 µM | > 25 µM | > 25 µM | > 25 µM | > 25 µM | > 25 µM | > 20.2 µM | > 25 µM | > 25 µM | > 25 µM | > 25 µM | > 25 µM | > 21 µM | > 25 µM |
| N#Cc1nc(C#N)c(Sc2ccccc2)c(Sc2ccccc2)c1Sc1ccccc1 | 0.463 µM | > 100 µM | 0.17 µM | 0.344 µM | 2.74 µM | > 27.8 µM | 2.52 µM | 20.9 µM | 0.392 µM | – | 1.37 µM | 2.94 µM | 1.25 µM | > 100 µM | 2.24 µM | 4.66 µM | 0.684 µM | 7.17 µM | 0.584 µM | 2.48 µM |
| [N-]=[N+]=NCCCn1c2c(c3ccc([N+](=O)[O-])cc3c1=O)C(=O)c1cc(-c3ccccc3)ccc1-2 | 56.5 µM | > 100 µM | > 100 µM | > 100 µM | > 100 µM | > 100 µM | > 100 µM | > 100 µM | > 100 µM | > 100 µM | > 100 µM | > 100 µM | > 100 µM | > 100 µM | > 100 µM | > 100 µM | > 100 µM | > 100 µM | > 100 µM | > 100 µM |
| Nc1ncc(-c2ccc3ncnc(N4CCc5ccc(Cl)cc54)c3c2)cc1C(F)(F)F | 0.326 µM | 3.05 µM | 0.734 µM | 11.9 µM | 1.07 µM | 3.23 µM | 0.137 µM | 6.41 µM | 1.6 µM | 12 µM | 2.86 µM | 20.9 µM | 0.507 µM | 18.7 µM | 3.43 µM | > 100 µM | 1.68 µM | 13.5 µM | 0.557 µM | 10.9 µM |
| O=C(Nc1cc(F)c(F)cc1C(=O)O)c1ccc(-n2ccnc2)nn1 | > 100 µM | > 100 µM | > 100 µM | > 100 µM | 65.6 µM | > 100 µM | > 100 µM | > 100 µM | > 100 µM | > 100 µM | > 100 µM | > 100 µM | > 100 µM | > 100 µM | > 100 µM | > 100 µM | > 100 µM | > 100 µM | > 100 µM | > 100 µM |
| C=C1C(=O)O[C@H]2[C@H]1CC/C(COC(=O)/C=C\C(=O)NCc1ccc(Cn3c(=O)sn(CCI)c3=O)cc1)=C\CC[C@@]1(C)O[C@@H]21 | 14 µM | 73.6 µM | 2.18 µM | 4.88 µM | 3.62 µM | 17.3 µM | 2.05 µM | 4.6 µM | 2.6 µM | 7.23 µM | 2.07 µM | 5.97 µM | 4.7 µM | 20.2 µM | 13.9 µM | 27.8 µM | 3.04 µM | 8.68 µM | 2.58 µM | 6.83 µM |
| O=C1NC2(CCCCC2)C(=O)N1CCN(CCCl)CCCl | – | > 25 µM | > 25 µM | > 250 µM | > 25 µM | > 250 µM | > 25 µM and 22.9 µM | > 25 µM and 48.3 µM | – | > 25 µM | > 25 µM | > 250 µM | > 25 µM | > 250 µM | > 25 µM | > 250 µM | – | > 25 µM | – | 25 µM |
| C#C[C@@]1(O)[C@@H](CO)O[C@@H](n2cc(C(F)(F)F)c3c(N)ncnc32)[C@@H]1O | 1.26 µM | 6.23 µM | 0.288 µM | 2.98 µM | 2.41 µM | > 100 µM | 1.24 µM | 7.46 µM | 2.07 µM | > 100 µM | 0.6 µM | – | 1.62 µM | > 25.9 µM | 0.423 µM | 4.24 µM | 0.808 µM | 11.3 µM | 0.0639 µM | 3.77 µM |
| COS(C)(=O)=O | – | > 2 µM | – | > 2 µM | – | > 2 µM | – | > 2 µM | – | > 2 µM | – | > 2 µM | – | > 2 µM | – | > 2 µM | – | > 2 µM | – | > 2 µM |
| Cc1ccc(Cl)c(NS(=O)(=O)c2ccc(-c3cnc(C4CC4)o3)cc2)c1 | 0.0729 µM | > 69.6 µM | 0.226 µM | 18.5 µM | 2.1 µM | 80.6 µM | 2.3 µM | 20.5 µM | 0.0772 µM | > 100 µM | 8.16 µM | 50.7 µM | 0.314 µM | > 100 µM | 0.233 µM | 14.6 µM | 0.0382 µM | 2.23 µM | 0.0481 µM | 67.9 µM |
| O=C(Nc1cc(Cl)ccc1O)c1cccc(Nc2ccnc(C(F)(F)F)c2)c1 | 8.27 µM | 41.2 µM | 2.65 µM | 24.4 µM | 2.32 µM | 17.4 µM | 2.27 µM | 10.9 µM | 3.56 µM | 19.3 µM | 4.63 µM | 16.7 µM | 2.43 µM | 10.7 µM | 5.01 µM | 17.1 µM | 2.83 µM | 12.2 µM | 1.02 µM | 7.51 µM |
| CC(=O)/C(Br)=C/c1ccc(Br)o1 | 2.39 µM | 7.22 µM | 4.35 µM | 14.9 µM | 9.35 µM | 22 µM | 8.63 µM | 23.9 µM | 16.5 µM | 34.2 µM | 6.05 µM | 19.2 µM | 14.6 µM | 28.1 µM | 19 µM | 36.7 µM | 8.51 µM | 23.2 µM | 8.89 µM | 24.2 µM |
| COc1ccc(C(=O)c2cc3c(N)c(C(=O)Nc4cccc(Br)c4C)sc3nc2C)cc1 | 0.082 µM | > 100 µM | 0.0615 µM | > 100 µM | 0.474 µM | > 100 µM | < 0.0445 µM | 1.67 µM | 0.0616 µM | > 100 µM | > 100 µM | > 100 µM | 0.0954 µM | > 100 µM | 0.302 µM | > 100 µM | 0.0223 µM | 0.0585 µM | 50.4 µM | > 100 µM |
| O=C(Nc1ccccc1)OC1OC(COC(=O)c2ccccc2)C(OC(=O)c2ccccc2)C1OS(=O)(=O)c1ccc([N+](=O)[O-])cc1 (centres undefined) | – | > 100 µM | – | > 100 µM | – | > 100 µM | – | > 100 µM | – | > 100 µM | – | > 100 µM | – | > 100 µM | – | > 100 µM | – | > 100 µM | – | > 100 µM |
| Oc1ccc2ccccc2c1C=NCc1c(O)ccc2ccccc12 | – | > 100 µM | – | > 100 µM | – | > 100 µM | – | > 100 µM | – | > 100 µM | – | > 100 µM | – | 70.7 µM | – | > 100 µM | – | > 100 µM | – | > 100 µM |
| O=C(NCCOCCOCCOCCNC(=O)c1cc2c(o1)C(=O)c1ccccc1C2=O)NC12CC3CC(CC(C3)C1)C2 | 2.18 µM | 6.85 µM | 0.843 µM | 3.16 µM | 1.02 µM | 2.27 µM | 3.08 µM | 10.7 µM | 2.89 µM | 11 µM | 1.36 µM | 2.83 µM | 2.57 µM | 7.07 µM | 1.99 µM | 4.02 µM | 0.388 µM | 1.36 µM | 1.59 µM | 6.02 µM |
| COc1ccc(-c2cc(-c3ccc(Cl)cc3)nc(NCCCCNc3ccnc4cc(Cl)ccc34)n2)cc1 | 14.6 µM | 38.9 µM | 1.7 µM | 3.18 µM | 1.72 µM | 3.49 µM | 1.67 µM | 18.3 µM | 1.62 µM | 3.02 µM | 1.96 µM | 4.22 µM | 13.2 µM | 35.1 µM | 1.93 µM | 3.71 µM | 1.79 µM | 3.27 µM | 12.3 µM | 31.4 µM |
| c1ccc(Oc2ccc(Nc3ncc(-c4ccccc4)o3)cc2)cc1 | > 25 µM | > 25 µM | > 25 µM | > 25 µM | > 25 µM | > 25 µM | 23.9 µM | > 25 µM | > 25 µM | > 25 µM | > 25 µM | > 25 µM | > 25 µM | > 25 µM | > 25 µM | > 25 µM | > 25 µM | > 25 µM | > 25 µM | > 25 µM |
| COc1ccccc1[As]=[As]c1ccccc1OC (centres undefined) | 0.0378 µM | 0.334 µM | 0.0384 µM | 0.136 µM | 0.0372 µM | 0.146 µM | 0.102 µM | 0.228 µM | 0.0377 µM | 0.0853 µM | 0.0775 µM | 0.218 µM | 0.12 µM | 0.271 µM | 0.0785 µM | 0.218 µM | 0.0511 µM | 0.196 µM | 0.0366 µM | 0.199 µM |
| O=C1Cc2cc(CCn3cncn3)c(Cl)cc2N1 | 0.72 µM | > 100 µM | > 100 µM | > 100 µM | > 100 µM | > 100 µM | 3.02 µM | > 100 µM | > 100 µM | > 100 µM | 7.14 µM | > 100 µM | 0.825 µM | > 100 µM | > 100 µM | > 100 µM | 3.22 µM | > 100 µM | > 100 µM | > 100 µM |
| COc1ccc2c(O)c(/C=C3\N=Nc4ncccc43)oc2c1C[C@@H]1CCNC[C@H]1F | 1.58 µM | 5.78 µM | 0.318 µM | 0.972 µM | 1.41 µM | 3.45 µM | 4.7 µM | 9.21 µM | 0.362 µM | 1.59 µM | 2.82 µM | 9.46 µM | 0.426 µM | 2.56 µM | 1.67 µM | 4.09 µM | 1.21 µM | 2.79 µM | 2.32 µM | 11.8 µM |
| CCOc1ccc(C(C[N+](=O)[O-])Sc2ccccc2N)cc1 (centres undefined) | 3.1 µM | 18.3 µM | 1.44 µM | 2.92 µM | 13 µM | 26 µM | 16.5 µM | 30.9 µM | 5.11 µM | 17.1 µM | 4.6 µM | 16.7 µM | 14.8 µM | 30 µM | 1.77 µM | 3.25 µM | 2.25 µM | 6.95 µM | 6.77 µM | 25.3 µM |
| CCCCCCCCCCNCCSS(=O)(=O)O | 1.67 µM | 3.6 µM | 1.69 µM | 3.26 µM | 9.91 µM | 24.4 µM | 8.84 µM | 25.7 µM | 4.55 µM | 14.3 µM | 7.88 µM | 22.4 µM | 4.14 µM | 19.2 µM | 1.73 µM | 3.19 µM | 1.14 µM | 2.91 µM | 10.9 µM | 29.5 µM |
